{"source": "patent US20130053385A1", "about": "“METHOD OF COMBATING AND CONTROLLING PESTS” (SYNGENTA LIMITED, priority 2009, published 2013)"}
{"system": "Myzus persicae (Green Peach Aphid)", "assay": "Activity against Myzus persicae, mixed population, feeding/residual contact activity, preventive (sunflower leaf discs, Example B1)", "type": "in vivo", "settings": "foliar, 144 h, 400 ppm, sprayed sunflower leaf discs, 6 days incubation, mixed-age aphids, read-out: activity (mortality)", "protocol": "(§1) Activity Against Myzus persicae (Green Peach Aphid)\n(§2) (mixed population, feeding/residual contact activity, preventive)\n(§3) Sunflower leaf discs are placed on agar in a 24-well microtiter plate and sprayed with test solutions. After drying, the leaf discs are infested with an aphid population of mixed ages. After an incubation period of 6 days, samples are checked for mortality and special effects (e.g. phytotoxicity).", "units": {"mortality at 400 ppm": "%"}}
{"smiles": "CCCCCCC(=O)OC1=C(c2c(C)cc(C)cc2C)C(=O)C(CC2CCOC2)C1", "note": "(centres unmarked) [Compound P16]", "mortality at 400 ppm": "> 80"}
{"smiles": "Cc1cc(Cl)cc(C)c1C1C(=O)CC(CC2CCOCC2)C1=O", "note": "(centres unmarked) [Compound T169]", "mortality at 400 ppm": "> 80"}
{"smiles": "CC(=O)N1CCC(/C=C2\\CC(=O)C(c3c(C)cc(C)cc3C)C2=O)CC1", "note": "(centres unmarked) [Compound T15]", "mortality at 400 ppm": "> 80"}
{"smiles": "CC(=O)N1CCC(CC2CC(=O)C(c3c(C)cc(C)cc3C)C2=O)CC1", "note": "(centres unmarked) [Compound T24]", "mortality at 400 ppm": "> 80"}
{"smiles": "Cc1cc(C)c(C2C(=O)CC(Cc3ccccc3)(CC3CCOC3)C2=O)c(C)c1", "note": "(centres unmarked) [Compound T150]", "mortality at 400 ppm": "> 80"}
{"smiles": "Cc1cc(Br)cc(C)c1C1=C(OC(=O)C(C)(C)C)CC(CC2CCOCC2)C1=O", "note": "(centres unmarked) [Compound P66]", "mortality at 400 ppm": "> 80"}
{"smiles": "Cc1cc(C)c(C2C(=O)C(C)C(CC3CCOC3)C2=O)c(C)c1", "note": "(centres unmarked) [Compound T29]", "mortality at 400 ppm": "> 80"}
{"smiles": "CCc1cc(C)cc(C)c1C1C(=O)C/C(=C\\C2CCOC2)C1=O", "note": "(centres unmarked) [Compound T59]", "mortality at 400 ppm": "> 80"}
{"smiles": "Cc1cc(C)c(C2=C(OC(=O)C3CC3)CC(CC3CCOC3)C2=O)c(C)c1", "note": "(centres unmarked) [Compound P14]", "mortality at 400 ppm": "> 80"}
{"system": "Myzus persicae (Green Peach Aphid)", "assay": "Activity against Myzus persicae, mixed population, feeding/residual contact activity, preventive (sunflower leaf discs, Example B1)", "type": "in vivo", "settings": "foliar, 144 h, read-out: activity (mortality)", "protocol": "as §1, §2, §3", "units": {"mortality at 400 ppm": "%"}}
{"smiles": "COC(=O)N1CCC(CC2CC(=O)C(c3c(C)cc(C)cc3C)C2=O)CC1", "note": "(centres unmarked) [Compound T98]", "mortality at 400 ppm": "> 80"}
{"system": "Tetranychus urticae (Two-Spotted Spider Mite)", "assay": "Activity against Tetranychus urticae, mixed population, feeding/residual contact activity, preventive (bean leaf discs, Example B4)", "type": "in vivo", "settings": "foliar, 192 h, 400 ppm, sprayed bean leaf discs, 8 days, mixed-age mites, read-out: activity (egg, larval and adult mortality)", "description": "Activity Against Tetranychus urticae (Two-Spotted Spider Mite)\nas §2\nBean leaf discs on agar in 24-well microtiter plates are sprayed with test solutions. After drying, the leaf discs are infested with mite populations of mixed ages. 8 days later, discs are checked for egg mortality, larval mortality, and adult mortality.", "units": {"mortality at 400 ppm": "%"}}
{"smiles": "Cc1cc(C)c(C2C(=O)CC(C)(CC3CCOC3)C2=O)c(C)c1", "note": "(centres unmarked) [Compound T30]", "mortality at 400 ppm": "> 80"}
{"smiles": "COC(=O)N1CCC(CC2CC(=O)C(c3c(C)cc(C)cc3C)C2=O)CC1", "note": "(centres unmarked) [Compound T98]", "mortality at 400 ppm": "> 80"}
{"smiles": "CCC1CCC(CC2CC(=O)C(c3c(C)cc(C)cc3C)C2=O)O1", "note": "(centres unmarked) [Compound T44]", "mortality at 400 ppm": "> 80"}
{"smiles": "Cc1cc(C)c(C2C(=O)CC(CC3CCN(c4ccc(Cl)cc4)CC3)C2=O)c(C)c1", "note": "(centres unmarked) [Compound T60]", "mortality at 400 ppm": "> 80"}
{"smiles": "Cc1cc(C)c(C2C(=O)CC(C(O)C3CCSCC3)C2=O)c(C)c1", "note": "(centres unmarked) [Compound T6]", "mortality at 400 ppm": "> 80"}
{"smiles": "CCc1cc(C)cc(C)c1C1C(=O)CC(CCC2CCOCC2)C1=O", "note": "(centres unmarked) [Compound T58]", "mortality at 400 ppm": "> 80"}
{"smiles": "Cc1cc(C)c(C2C(=O)CC(CC3CCN(S(=O)(=O)C(F)(F)F)CC3)C2=O)c(C)c1", "note": "(centres unmarked) [Compound T112]", "mortality at 400 ppm": "> 80"}
{"smiles": "Cc1cc(C)c(C2C(=O)CC(CC3CCN(C(=O)C(F)(F)C(F)F)CC3)C2=O)c(C)c1", "note": "(centres unmarked) [Compound T161]", "mortality at 400 ppm": "> 80"}
{"smiles": "Cc1cc(C)c(C2=C(OC(=O)C(C)(C)C)CC(CCC3CCOCC3)C2=O)c(C)c1", "note": "(centres unmarked) [Compound P34]", "mortality at 400 ppm": "> 80"}
{"smiles": "Cc1cc(-c2ccc(C(F)(F)F)cc2)cc(C)c1C1C(=O)CC(CC2CCOCC2)C1=O", "note": "(centres unmarked) [Compound T136]", "mortality at 400 ppm": "> 80"}
{"smiles": "Cc1cc(C)c(C2=C(OC(=O)C(C)C)CC(CC3CCN(C(=O)C(C)C)C3)C2=O)c(C)c1", "note": "(centres unmarked) [Compound P58]", "mortality at 400 ppm": "> 80"}
{"smiles": "Cc1cc(-c2ccccc2F)cc(C)c1C1C(=O)CC(CC2CCOC2)C1=O", "note": "(centres unmarked) [Compound T140]", "mortality at 400 ppm": "> 80"}
{"smiles": "CCc1cc(C)cc(C)c1C1C(=O)CC(CC2CCOCC2)C1=O", "note": "(centres unmarked) [Compound T50]", "mortality at 400 ppm": "> 80"}
{"smiles": "Cc1cc(-c2ccccc2F)cc(C)c1C1C(=O)CC(CC2CCOCC2)C1=O", "note": "(centres unmarked) [Compound T139]", "mortality at 400 ppm": "> 80"}
{"smiles": "COC(=O)N1CCC(CC2CC(=O)C(c3c(C)cc(C)cc3C)C2=O)C1", "note": "(centres unmarked) [Compound T43]", "mortality at 400 ppm": "> 80"}
{"smiles": "Cc1cc(C)c(C2C(=O)CC(CC3CCN(C(=O)OC(C)(C)C)CC3)C2=O)c(C)c1", "note": "(centres unmarked) [Compound T55]", "mortality at 400 ppm": "> 80"}
{"smiles": "Cc1cc(-c2ccccc2)cc(C)c1C1C(=O)CC(CC2CCOCC2)C1=O", "note": "(centres unmarked) [Compound T67]", "mortality at 400 ppm": "> 80"}
{"smiles": "Cc1cc(C)c(C2C(=O)C/C(=C\\C3CCN(C(=O)c4ccccc4)C3)C2=O)c(C)c1", "note": "(centres unmarked) [Compound T34]", "mortality at 400 ppm": "> 80"}
{"smiles": "Cc1cc(C)c(C2C(=O)CC(CC3CCN(C(=O)c4ccccc4C)CC3)C2=O)c(C)c1", "note": "(centres unmarked) [Compound T72]", "mortality at 400 ppm": "> 80"}
{"smiles": "Cc1cc(C)c(C2C(=O)CC(CCC3CCOCC3)C2=O)c(C)c1", "note": "(centres unmarked) [Compound T21]", "mortality at 400 ppm": "> 80"}
{"smiles": "Cc1cc(C)c(C2C(=O)CC(CC3CCN(C(=O)C(C)C)C3)C2=O)c(C)c1", "note": "(centres unmarked) [Compound T142]", "mortality at 400 ppm": "> 80"}
{"smiles": "Cc1cc(-c2ccc(OC(F)(F)F)cc2)cc(C)c1C1C(=O)C/C(=C\\C2CCOCC2)C1=O", "note": "(centres unmarked) [Compound T134]", "mortality at 400 ppm": "> 80"}
{"smiles": "Cc1cc(C)c(C2=C(OC(=O)c3c(C)noc3C)CC(CC3CCN(C(=O)c4c(C)noc4C)C3)C2=O)c(C)c1", "note": "(centres unmarked) [Compound P63]", "mortality at 400 ppm": "> 80"}
{"smiles": "Cc1cc(C)c(C2C(=O)CC(CC3C[C@@H]4O[C@H]3[C@@H]3C(=O)N(C)C(=O)[C@@H]34)C2=O)c(C)c1", "note": "(some centres unmarked) [Compound T128]", "mortality at 400 ppm": "> 80"}
{"smiles": "Cc1cc(C)c(C2C(=O)CC(CC3CCN(C(=O)C(F)(F)F)C3)C2=O)c(C)c1", "note": "(centres unmarked) [Compound T162]", "mortality at 400 ppm": "> 80"}
{"smiles": "Cc1cc(-c2ccc(Cl)cc2F)cc(C)c1C1C(=O)C/C(=C\\C2CCOC2)C1=O", "note": "(centres unmarked) [Compound T135]", "mortality at 400 ppm": "> 80"}
{"smiles": "Cc1cc(C)c(C2=C(OS(=O)(=O)C3CC3)CC(CC3CCOC3)C2=O)c(C)c1", "note": "(centres unmarked) [Compound P28]", "mortality at 400 ppm": "> 80"}
{"smiles": "Cc1cc(C)c(C2=C(OC(=O)c3ccco3)CC(CC3CCN(C(=O)c4ccco4)C3)C2=O)c(C)c1", "note": "(centres unmarked) [Compound P62]", "mortality at 400 ppm": "> 80"}
{"smiles": "Cc1ccc(C)c(C2C(=O)CC(CC3CCOCC3)C2=O)c1", "note": "(centres unmarked) [Compound T164]", "mortality at 400 ppm": "> 80"}
{"smiles": "Cc1cc(C)c(C2C(=O)CC(CC3CCN(C(=O)c4ccccc4)C3)C2=O)c(C)c1", "note": "(centres unmarked) [Compound T41]", "mortality at 400 ppm": "> 80"}
{"smiles": "Cc1cc(C)c(C2C(=O)CC(CC3CCN(C(=O)C(F)(F)F)CC3)C2=O)c(C)c1", "note": "(centres unmarked) [Compound T163]", "mortality at 400 ppm": "> 80"}
{"smiles": "Cc1cc(C)c(C2=C(OC(=O)C(C)(C)C)CC(CC3COCCO3)C2=O)c(C)c1", "note": "(centres unmarked) [Compound P49]", "mortality at 400 ppm": "> 80"}
{"smiles": "Cc1cc(-c2ccc(OC(F)(F)F)cc2)cc(C)c1C1C(=O)CC(CC2CCOCC2)C1=O", "note": "(centres unmarked) [Compound T137]", "mortality at 400 ppm": "> 80"}
{"smiles": "Cc1cc(F)cc(C)c1C1C(=O)CC(CC2CCOCC2)C1=O", "note": "(centres unmarked) [Compound T170]", "mortality at 400 ppm": "> 80"}
{"smiles": "Cc1cc(C)c(C2C(=O)CC(CC3OCCO3)C2=O)c(C)c1", "note": "(centres unmarked) [Compound T130]", "mortality at 400 ppm": "> 80"}
{"smiles": "Cc1cc(C)c(C2C(=O)CC(CC3CCN(C(=O)C(F)(F)C(F)F)C3)C2=O)c(C)c1", "note": "(centres unmarked) [Compound T131]", "mortality at 400 ppm": "> 80"}
{"smiles": "Cc1cc(-c2ccccc2)cc(C)c1C1C(=O)C/C(=C\\C2CCOCC2)C1=O", "note": "(centres unmarked) [Compound T66]", "mortality at 400 ppm": "> 80"}
{"smiles": "Cc1cc(C)c(C2=C(OC(=O)C(C)(C)C)CC(CC3CCN(C(=O)C(C)(C)C)C3)C2=O)c(C)c1", "note": "(centres unmarked) [Compound P59]", "mortality at 400 ppm": "> 80"}
{"smiles": "Cc1cc(-c2ccc(F)cc2)cc(C)c1C1C(=O)CC(CC2CCOC2)C1=O", "note": "(centres unmarked) [Compound T158]", "mortality at 400 ppm": "> 80"}
{"smiles": "Cc1cc(C2CC2)cc(C)c1C1C(=O)CC(CC2CCOCC2)C1=O", "note": "(centres unmarked) [Compound T173]", "mortality at 400 ppm": "> 80"}
{"smiles": "CON1CCC(CC2CC(OC(=O)C(C)(C)C)=C(c3c(C)cc(C)cc3C)C2=O)CC1", "note": "(centres unmarked) [Compound P51]", "mortality at 400 ppm": "> 80"}
{"smiles": "CC(=O)N1CCC(CC2CC(=O)C(c3c(C)cc(C)cc3C)C2=O)C1", "note": "(centres unmarked) [Compound T35]", "mortality at 400 ppm": "> 80"}
{"smiles": "Cc1ccc(C)c(C2C(=O)CC(CC3CCOC3)C2=O)c1", "note": "(centres unmarked) [Compound T175]", "mortality at 400 ppm": "> 80"}
{"smiles": "CC(=O)N1CCCCC1CC1CC(=O)C(c2c(C)cc(C)cc2C)C1=O", "note": "(centres unmarked) [Compound T48]", "mortality at 400 ppm": "> 80"}
{"smiles": "Cc1cc(C)c(C2C(=O)CC(CC3COCCO3)C2=O)c(C)c1", "note": "(centres unmarked) [Compound T40]", "mortality at 400 ppm": "> 80"}
{"smiles": "CCC(=O)OC1=C(c2c(C)cc(C)cc2C)C(=O)C(CC2CCN(C(=O)CC)CC2)C1", "note": "(centres unmarked) [Compound P65]", "mortality at 400 ppm": "> 80"}
